“Also recorded” adds a separate entry of the source.
Target: T1, Nav1.5 (Homo sapiens, UniProt Q14524)
T1 construct: expressed in transfected cells
Test: Whole-cell patch clamp of Nav1.5 stable cells with optogenetic PI-phosphatases and diC8PI(4,5)P2 in the pipette
Assay type: cell-based
Details: for left shift in the I-V relationship / shift in V½SSI / shift in V½act / V½SSI / V½act: 200 μM diC8PI(4,5)P2; for current density: 200 μM diC8PI(4,5)P2, −55 mV; for τinact / ILATE: diC8PI(4,5)P2; for ILATE: % of Ipeak
Procedure: Nav1.5 channels were studied with Navβ1 (SCNIB, isoform b; NM_001037) in pRAT, a CMV driven vector. N-terminal CRY2-tagged pseudojanin in pMaX(+) vector was generated by Genscript (Piscataway, NY). Purified diC8PI(4,5)P2 was purchased from Echelon Biosciences.
HEK293-T cells were purchased from American Type Culture Collection (ATCC, catalog no. CRL-3216). The cells were cultured in 60-mm dishes in Dulbecco's Modified Eagle Medium (DMEM) (Sigma-Aldrich) that was supplemented with a combination of 100 units/ml of penicillin, 100 μg/ml of streptomycin and 10% Fetal Bovine Serum (FBS). Stable cells were cultured in previously mentioned DMEM, penicillin, streptomycin, and FBS medium with addition of 2 μg/ml puromycin, 5 μg/ml blasticidin, 200 μg/ml geneticin (G418). Both cell lines were incubated at 5% CO2 at 37° C. 24 hours before transfection cells from either cell lines were seeded on glass coverslips in 35-mm dishes. Both cell lines were transfected in OptiMEM using polyethyleneimine (PEI) at a 1 μg of DNA: 4 μL PEI to 1 μg of DNA: 6 μL PEI ratio for 2-4 hours. HEK293-T cells were transfected with 1.5 μg of channel DNA and 1 μg of the beta subunit alone and alongside light-activated constructs. Stable cells were transfected with 1p g of the beta subunit alone and alongside light-activated constructs. Electrophysiology recordings were performed within 24-48 hours after transfection at room temperature.
Both the HEK293-T, and Nav1.5 stable cells were studied under whole-cell patch clamp. Sodium currents were recorded using the Tecella Pico-2 amplifier (Tecella) and WinWCP software (University of Strathclyde) at a low pass (Bessel) filter of 9 kHz and sampled at 50 kHz frequencies. The borosilicate glass (Clark Kent) patch pipettes were pulled to a resistance of 2-4 MQ using the vertical puller (Narishige) when filled with internal solution. The internal solution contained (in mM): 60 CsCl, 80 CsF, 2 MgCl2·6H2O, 10 EGTA, 5 HEPES, 5 Na2ATP, pH 7.4 with CsOH. Cells were perfused through a multichannel gravity-driven perfusion manifold (Warner) with an extracellular solution containing (in mM): 130 NaCl, 5 CsCl, 1.2 MgCl2·6H2O, 1.5 CaCl2), 8 Glucose, 10 HEPES. Cells with a series resistance less than 15 MQ were studied.
Current-voltage relationships were evoked by a 250-ms test pulse between −80 mV to 35 mV, in 5 mV increments. Steady-state inactivation was studied by holding cells at −120 mV and then comparing currents that were evoked by a 50 ms test pulse between −120 mV and −20 mV to those evoked by a 500 ms pre-pulse to 30 mV, in 10 mV increments. Normalized peak currents were then plotted against pre-pulse potential (mV). To determine voltage-dependence, the data was normalized and plotted against the driving force and fitted to a Boltzmann function, I=Imax(1+exp[V−V1/2/k]), where Imax is maximum current and k is the slope factor to generate normalized conductance-voltage (G-V) relationship. The ILATE was evoked by a single test pulse between −90 mV and −20 mV. ILATE was calculated from the last 10 ms of this 250 ms test pulse. From this recording protocol, the time constant for inactivation (T) was determined from a mono-exponential fit of normalized current amplitude using It=Imax+A [e^−t/τ], A is amplitude and t is time. All whole-cell currents were normalized to the capacitance of cell.
Experiments were set up similar to those in Gada et al (2023). Optogenetic studies were conducted simultaneously alongside patch-clamp. Here the photoactivation of cells was conducted in the epifluorescence-mode to utilize continuous excitation from a broad-spectrum LED (Excelitas) through a 448/20 nm filter (Chroma), via a 20× objective lens (Olympus). A photometer (ThorLabs) was used to measure the light output which measured at 50 mW/cm^2. […]

[1] = 200 μM diC8PI(4,5)P2 in pipette
[2] = CRY2-5POCRL + CRY2-Sac2, BL vs control
[3] = CRY2-5POCRL + CRY2-Sac2, control (before BL)
[4] = CRY2-5POCRL, control (before BL)
[5] = CRY2-5POCRL, diC8PI(4,5)P2 enriched vs BL without diC8PI(4,5)P2

T1 sequence (Q14524 whole entry): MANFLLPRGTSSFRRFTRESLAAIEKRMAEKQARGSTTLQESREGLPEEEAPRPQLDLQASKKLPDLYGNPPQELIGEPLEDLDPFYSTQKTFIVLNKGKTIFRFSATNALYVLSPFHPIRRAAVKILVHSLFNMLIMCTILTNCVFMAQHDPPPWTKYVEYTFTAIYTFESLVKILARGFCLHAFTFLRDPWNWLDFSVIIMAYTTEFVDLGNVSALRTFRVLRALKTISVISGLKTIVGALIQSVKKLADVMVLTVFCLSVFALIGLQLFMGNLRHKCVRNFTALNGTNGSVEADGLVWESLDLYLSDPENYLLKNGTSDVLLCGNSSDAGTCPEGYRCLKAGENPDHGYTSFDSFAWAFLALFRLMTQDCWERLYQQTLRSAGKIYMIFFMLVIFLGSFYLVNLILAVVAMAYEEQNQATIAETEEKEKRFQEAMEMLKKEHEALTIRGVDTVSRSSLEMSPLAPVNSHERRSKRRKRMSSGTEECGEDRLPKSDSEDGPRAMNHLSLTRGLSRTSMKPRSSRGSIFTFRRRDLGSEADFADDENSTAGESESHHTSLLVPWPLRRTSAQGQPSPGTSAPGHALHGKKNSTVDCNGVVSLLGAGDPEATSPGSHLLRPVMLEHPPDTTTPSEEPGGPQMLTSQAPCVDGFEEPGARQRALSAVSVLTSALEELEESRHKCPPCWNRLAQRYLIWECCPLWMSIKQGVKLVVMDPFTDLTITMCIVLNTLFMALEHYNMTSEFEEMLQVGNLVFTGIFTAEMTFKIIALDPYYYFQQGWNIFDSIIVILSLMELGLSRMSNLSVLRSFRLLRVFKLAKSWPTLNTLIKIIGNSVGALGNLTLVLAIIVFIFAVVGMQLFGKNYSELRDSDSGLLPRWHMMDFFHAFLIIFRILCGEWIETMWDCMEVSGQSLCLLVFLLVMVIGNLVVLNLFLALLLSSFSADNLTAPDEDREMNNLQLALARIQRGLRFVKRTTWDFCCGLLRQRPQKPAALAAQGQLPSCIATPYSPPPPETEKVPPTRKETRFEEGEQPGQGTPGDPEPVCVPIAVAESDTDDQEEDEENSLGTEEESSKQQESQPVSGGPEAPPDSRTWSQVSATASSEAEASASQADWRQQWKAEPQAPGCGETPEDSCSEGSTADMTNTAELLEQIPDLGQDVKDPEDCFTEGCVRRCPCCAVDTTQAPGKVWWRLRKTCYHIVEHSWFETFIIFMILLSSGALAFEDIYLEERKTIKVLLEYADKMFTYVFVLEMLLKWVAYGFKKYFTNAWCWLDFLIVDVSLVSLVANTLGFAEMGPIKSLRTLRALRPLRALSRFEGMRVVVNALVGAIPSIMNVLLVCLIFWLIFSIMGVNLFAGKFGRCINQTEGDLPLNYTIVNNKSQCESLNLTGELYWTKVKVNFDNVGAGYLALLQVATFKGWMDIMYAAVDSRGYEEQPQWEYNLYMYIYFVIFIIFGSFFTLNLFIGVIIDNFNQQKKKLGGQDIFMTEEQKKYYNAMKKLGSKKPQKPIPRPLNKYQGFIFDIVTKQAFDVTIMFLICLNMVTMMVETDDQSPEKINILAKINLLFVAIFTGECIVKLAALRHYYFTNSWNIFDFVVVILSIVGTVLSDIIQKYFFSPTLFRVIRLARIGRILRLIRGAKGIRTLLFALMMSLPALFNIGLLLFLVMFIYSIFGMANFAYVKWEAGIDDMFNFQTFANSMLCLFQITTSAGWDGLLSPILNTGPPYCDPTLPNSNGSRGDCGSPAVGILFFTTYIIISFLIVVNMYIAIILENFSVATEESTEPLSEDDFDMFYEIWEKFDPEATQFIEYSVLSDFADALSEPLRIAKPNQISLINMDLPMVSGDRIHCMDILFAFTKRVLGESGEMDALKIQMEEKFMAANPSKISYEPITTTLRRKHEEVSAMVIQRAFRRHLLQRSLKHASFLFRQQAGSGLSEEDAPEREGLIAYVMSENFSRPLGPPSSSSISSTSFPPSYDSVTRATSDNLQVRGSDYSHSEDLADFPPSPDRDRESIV

## CCCCCCCC(=O)OC[C@H](COP(=O)(O)O[C@@H]1[C@H](O)[C@H](O)[C@@H](OP(=O)(O)O)[C@H](OP(=O)(O)O)[C@H]1O)OC(=O)CCCCCCC [diC8-PIP2]
[1]
  effect on CRY2-5POCRL (CRY2-5P) dephosphorylation effects: partially opposes; also recorded: partially reverses
  effect on CRY2-5POCRL/Sac2 dephosphorylation effects (activation, SSI): partially opposes
CRY2-5POCRL + CRY2-Sac2, BL vs before BL
  left shift in the I-V relationship: −1.87 mV
[2]
  shift in V½SSI: −9.1±1.62 mV
  shift in V½act: −1.87±1.52 mV
CRY2-5POCRL + CRY2-Sac2, BL
  V½SSI: −80.48±1.75 mV
  V½act: −53.17±1.49 mV
  current density: −203.83±59.93 pA/pF
[3]
  V½SSI: −71.75±1.84 mV
  V½act: −51.30±1.7 mV
CRY2-5POCRL + CRY2-Sac2, diC8PI(4,5)P2
  effect on changes in window current: does not oppose
CRY2-5POCRL + CRY2-Sac2, diC8PI(4,5)P2 enriched before BL vs BL without diC8PI(4,5)P2
  difference in V½act: −6.518 mV
CRY2-5POCRL + CRY2-Sac2, diC8PI(4,5)P2 enriched vs BL without diC8PI(4,5)P2
  difference in V½SSI: −8.73±2.61
CRY2-5POCRL + CRY2-Sac2, without BL
  current density: −80.94±28.21 pA/pF
CRY2-5POCRL, BL vs control
  shift in V½SSI: −0.9383±2.01 mV
  shift in V½act: −8.61±0.77 mV
CRY2-5POCRL, BL
  V½SSI: −72.13±1.53 mV
  V½act: −55.90±2.00 mV
  left shift in the I-V relationship: ~8.61 mV
  τinact: 1.68 ± 0.15 ms
  ILATE: 0.64±0.25%
[4]
  V½SSI: −73.07±1.54 mV
  V½act: −47.29±1.77 mV
  τinact: 1.24 ± 0.3 ms
  ILATE: 0.08±0.025%
CRY2-5POCRL, diC8PI(4,5)P2 enriched before BL vs BL without diC8PI(4,5)P2
  difference in V½act: ~6.768±2.420 mV
[5]
  difference in ILATE: 2.139±0.5794
  difference in V½SSI: −6.518 mV
  difference in τinact: 1.345 ± 0.3918 ms
diC8PI(4,5)P2 enriched vs depleted
  effect on CRY2-PJ dephosphorylation effect on voltage-dependence of inactivation (SSI): opposed; also recorded: partially opposes
diC8PI(4,5)P2 in pipette
  effect on CRY2-PJ dephosphorylation effects on Nav1.5: did not oppose; also recorded: does not oppose

Reference: patent US20240358727A1, “MICROSCALE THERMOPHORESIS TO EVALUATE CHANNEL LIPID INTERACTIONS AND METHODS OF TREATING NAV CHANNELS RELATED DISEASES” (Northeastern University, priority 2023, published 2024)
